Reference: patent US8440240B2, “Method for treating ocular demodex” (priority 2005, dated 2013)
Where “and” joins values, the source holds several entries; their conditions need not be identical. Equal entries are not always repeated.

Assays:
Demodex folliculorum [1] = assay: In vitro killing: survival time of live adult demodex from epilated lashes in test solutions; conditions: for killing effect on Demodex in words (relative to TTO): in vitro; for ST: survival time of demodex: 150 = still alive (no effect)
Protocol: TT shampoo was from Kato Sales, Inc. (Altamonte Springs, Fla., USA). TTO was diluted with mineral oil into different concentrations.
Under the microscope, if the epilated lash contained live demodex, different solutions were added to the coverslip edge. The movement of demodex body and legs was continuously observed for 150 minutes. The survival time (ST) (Table 2 below) was counted from the time when the solution was added to the time when the movement ceased (See FIG. 1) The average ST tested for a given solution in a number of mites was used to compare the in vitro killing effect. If demodex remained alive at the end of 150 minutes, this value was denoted as no effect. Because demodex in an earlier life stage was more vulnerable, we only tested adult demodex that had 4 pairs of well developed legs and stumpy body. Because demodex buried in cylindrical dandruff (CD) might preclude the killing effect, we only tested demodex of which the whole body was fully exposed to the test solution.

Demodex folliculorum [2] = conditions: Norn 1970; cited from earlier work

For `C=C(C)[C@H]1CC=C(C)C(=O)C1` [(+)-Carvone], which “Killing effect on Demodex (Time in minutes), Average” value (“Killing effect on Demodex … Average” below) (Demodex folliculorum [1]; 25%) is on record?
Its value is 22.7 min.

And the “Killing effect on Demodex (Time in minutes), single mite” value (shortened to “Killing effect on Demodex … single mite”) (Demodex folliculorum [1]; 25%)?
Its value is 25 min and 20 min and 23 min.

What about the “Killing effect on Demodex … Average” value (Demodex folliculorum [1]; 50%) of the same compound?
The value was 11.6 min.

And the “Killing effect on Demodex … single mite” value (Demodex folliculorum [1]; 50%)?
The value was 13 min and 8 min and 10 min and 11 min and 16 min.

What about the “Killing effect on Demodex … Average” value (Demodex folliculorum [1]; 100%) of the same compound?
The value was 4.2 min.

And the “Killing effect on Demodex … single mite” value (Demodex folliculorum [1]; 100%)?
Its value is 4 min and 5 min and 3 min.

What about the “killing effect on Demodex in words (relative to TTO)” value (“killing effect … (relative to TTO)” for short) (Demodex folliculorum [1]) of the same compound?
Its value is “as effective as TTO”.

Which results are given for `C=C(C)[C@H]1CC=C(C)CC1` [(+)-Limonene, (R)-(+)-Limonene]?
Killing effect on Demodex (Time in minutes), Average (Demodex folliculorum [1]; 97%): 66.8 min; killing effect on Demodex in words (relative to TTO) (Demodex folliculorum [1]): not as effective as TTO

For `CCO` [Alc, alcohol, reference compound], which “ST: survival time of demodex” value (Demodex folliculorum [1]; 75% solution) is on record?
Its value is 150 min.

What about the “ST: survival time of demodex” value (Demodex folliculorum [1]; 100% solution, adult mites, observed 150 min, mean±S.D.) of the same compound?
Its value is 3.9 ± 1.2 min.

What about the “time to kill demodex” value (Demodex folliculorum [2]) of the same compound?
Its value is “within several minutes”.

With `CC12CCC(CC1)C(C)(C)O2` [Eucalyptol] as the compound, how does the “Killing effect on Demodex … Average” value (Demodex folliculorum [1]; concentration not given) read?
The value was 36.8 min.

And the “Killing effect on Demodex … single mite” value (Demodex folliculorum [1]; concentration not given)?
The value was 30 min and 35 min and 40 min and 42 min.

And the “killing effect … (relative to TTO)” value (Demodex folliculorum [1])?
Its value is “not as effective as TTO”.

What does the source list for `CC[C@@H]1C(=O)OC[C@@H]1Cc1cncn1C` [Pilo, pilocarpine, reference compound]?
Killing effect on Demodex (Time in minutes), Average (Demodex folliculorum [1]; 2%, 150 = no effect): 150 min; Killing effect on Demodex (Time in minutes), single mite (Demodex folliculorum [1]; 2%, 150 = no effect): 150 min; ST: survival time of demodex (Demodex folliculorum [1]; 4% solution): 150 min; ST: survival time of demodex (Demodex folliculorum [1]; 4% solution, listed as Pilocarpine): > 150 min; Killing effect on Demodex (Time in minutes), Average (Demodex folliculorum [1]; 4%, 150 = no effect): 150 min; Killing effect on Demodex (Time in minutes), single mite (Demodex folliculorum [1]; 4%, 150 = no effect): 150 min

Which “killing effect … (relative to TTO)” value (Demodex folliculorum [1]) does the source give for `CC1=CCC(O)(C(C)C)CC1` (centres unmarked) [Terpinen-4-ol] here?
The value was “active ingredient”.

For `c1ccccc1` [benzene], which “time to kill demodex” value (Demodex folliculorum [2]) is on record?
The value was “within several minutes”.

For `CCOCC` [ether], which “time to kill demodex” value (Demodex folliculorum [2]) is on record?
Its value is “within several minutes”.

Which “ST: survival time of demodex” value (Demodex folliculorum [1]; 10% solution, observed 150 min) does the source give for “povidone iodine [PI, reference compound]” here?
The value was 150 min.

Which “time to kill demodex” value (Demodex folliculorum [2]) does the source give for xylol here?
The value was “within several minutes”.
